Results on 16 molecules are retold here after patent publication US20220104493A1, “HERBICIDAL COMPOUNDS” (SYNGENTA CROP PROTECTION AG, priority 2019, published 2022).

Where two headings read alike, the source gives them in different places.

Common to all, as to test: Post-emergence efficacy, Method A
Type in all cases: in vivo

The test system of test [1] is Amaranthus palmeri (AMAPA). Conditions: read-out: Control of weed species after post-emergence application, AMAPA.
Test [2] deals with Chenopodium album (CHEAL). Conditions: read-out: Control of weed species after post-emergence application, CHEAL.
A further test relates to Eleusine indica (ELEIN). As to conditions: read-out: Control of weed species after post-emergence application, ELEIN.
Test [3] concerns Ipomoea hederacea (IPOHE). Conditions: read-out: Control of weed species after post-emergence application, IPOHE.
A further test has as its system Setaria faberi (SETFA). Conditions: read-out: Control of weed species after post-emergence application, SETFA.
In a further test the test system is Lolium perenne (LOLPE). Conditions: read-out: Control of weed species after post-emergence application, LOLPE.
The subject of test [4] is Echinochloa crus-galli (ECHCG). Conditions: read-out: Control of weed species after post-emergence application, ECHCG.
Test [5] relates to Digitaria sanguinalis (DIGSA). Conditions: read-out: Control of weed species after post-emergence application, DIGSA.
Where [6] appears, read: 500 g/Ha, 100=total damage to plant, 0=no damage, evaluated after 7 and 14 days.

Regarding `O=C(O)C[n+]1ccc(-c2nc(C(F)(F)F)ns2)cc1` [Compound A1, 2-[4-[3-(trifluoromethyl)-1,2,4-thiadiazol-5-yl]pyridin-1-ium-1-yl]acetic acid 2,2,2-trifluoroacetate], the pest or weed control at 500 g/ha was 100% in test [1] (setting [6]); 90% in test [2] (setting [6]); 90% in the test on Eleusine indica (ELEIN) (setting [6]); 40% in test [3] (setting [6]); 90% in the test on Setaria faberi (SETFA) (setting [6]); 70% with Lolium perenne (LOLPE) (setting [6]). For the same molecule, the results for the pest or weed control at 500 g/ha in test [4] (setting [6]) and in test [5] (setting [6]) were 60% and 70%, respectively.

On to `Cc1nsc(-c2cc[n+](CS(=O)(=O)[O-])cc2)n1` [Compound A2, [4-(3-methyl-1,2,4-thiadiazol-5-yl)pyridin-1-ium-1-yl]methanesulfonate], for which the pest or weed control at 500 g/ha stood at 100% in test [1] (setting [6]); 90% in test [2] (setting [6]); 80% in the test with Eleusine indica (ELEIN) (setting [6]); 70% in test [3] (setting [6]); 70% with Setaria faberi (SETFA) (setting [6]); 60% in the test on Lolium perenne (LOLPE) (setting [6]). Also, the pest or weed control at 500 g/ha in test [4] (setting [6]) is 60%; in test [5] (setting [6]) it was 90%.

Regarding `CP(=O)([O-])C[n+]1ccc(-c2ncns2)cc1` [Compound A10, methyl-[[4-(1,2,4-thiadiazol-5-yl)pyridin-1-ium-1-yl]methyl]phosphinate], the pest or weed control at 500 g/ha in test [1] was 90%; in test [2] it was 90%; in the test with Eleusine indica (ELEIN), 90%; in test [3], 50%; in the test with Setaria faberi (SETFA), 100%; in the test with Lolium perenne (LOLPE) it was 40%. In addition, the pest or weed control at 500 g/ha in test [4] and in test [5] was 90% throughout.

Take `CC([n+]1ccc(-c2ncns2)cc1)S(=O)(=O)[O-]` (centres unmarked) [Compound A11]: the pest or weed control at 500 g/ha in test [1] (setting [6]) came to 100%; in test [2] (setting [6]), 90%; in the test with Eleusine indica (ELEIN) (setting [6]), 90%; in test [3] (setting [6]), 80%; in the test with Setaria faberi (SETFA) (setting [6]), 60%; with Lolium perenne (LOLPE) (setting [6]) it was 60%. Further, the pest or weed control at 500 g/ha amounted to 100% in test [4] (setting [6]) and 80% in test [5] (setting [6]).

Regarding `O=S(=O)([O-])CCC[n+]1ccc(-c2noc(C(F)(F)F)n2)cc1` [Compound A15, 3-[4-[5-(trifluoromethyl)-1,2,4-oxadiazol-3-yl]pyridin-1-ium-1-yl]propane-1-sulfonate], the pest or weed control at 500 g/ha in test [1] (setting [6]) is 0%; in test [2] (setting [6]) it was 0%; in the test with Eleusine indica (ELEIN) (setting [6]) it was 10%; in test [3] (setting [6]), 20%; in the test with Setaria faberi (SETFA) (setting [6]) it was 30%; in the test with Lolium perenne (LOLPE) (setting [6]) it was 0%. In addition, the pest or weed control at 500 g/ha in test [4] (setting [6]) and in test [5] (setting [6]) was 30% throughout.

For the molecule `O=S(=O)([O-])CC[n+]1ccc(-c2nc(C(F)(F)F)cs2)cc1` [Compound A21], the pest or weed control at 500 g/ha is 70% in test [1] (setting [6]); 0% in test [2] (setting [6]); 80% with Eleusine indica (ELEIN) (setting [6]); 10% in test [3] (setting [6]); 70% with Setaria faberi (SETFA) (setting [6]); 20% in the test on Lolium perenne (LOLPE) (setting [6]). The pest or weed control at 500 g/ha worked out at 90% in test [4] (setting [6]) and 70% in test [5] (setting [6]).

As for `O=S(=O)([O-])C[n+]1ccc(-c2ncco2)cc1` [Compound A23], the pest or weed control at 500 g/ha in test [1] (setting [6]) worked out at 0%; in test [2] (setting [6]), 20%; in the test with Eleusine indica (ELEIN) (setting [6]), 0%; in test [3] (setting [6]), 10%; with Setaria faberi (SETFA) (setting [6]), 0%; in the test on Lolium perenne (LOLPE) (setting [6]) it was 0%. Besides, the pest or weed control at 500 g/ha in test [4] (setting [6]) was 0%; in test [5] (setting [6]) it was 20%.

With `CS(=O)(=O)[N-]C(=O)C[n+]1ccc(-c2ncns2)cc1` [Compound A29], the pest or weed control at 500 g/ha in test [1] (setting [6]) amounted to 90%; in test [2] (setting [6]), 30%; with Eleusine indica (ELEIN) (setting [6]) it was 50%; in test [3] (setting [6]), 90%; in the test on Setaria faberi (SETFA) (setting [6]), 50%; in the test with Lolium perenne (LOLPE) (setting [6]) it was 40%. The pest or weed control at 500 g/ha in test [4] (setting [6]) and in test [5] (setting [6]) was 90% throughout.

Take `COP(=O)([O-])C[n+]1ccc(-c2ncns2)cc1` [Compound A30, methoxy-[[4-(1,2,4-thiadiazol-5-yl)pyridin-1-ium-1-yl]methyl]phosphinate]: the pest or weed control at 500 g/ha in test [1] worked out at 90%; in test [2], 70%; with Eleusine indica (ELEIN), 90%; in test [3] it was 50%; in the test on Setaria faberi (SETFA), 90%; with Lolium perenne (LOLPE) it was 30%. Also, the pest or weed control at 500 g/ha in test [4] and in test [5] was 90% in each case.

For `CCOP(=O)([O-])C[n+]1ccc(-c2ncns2)cc1` [Compound A31], the pest or weed control at 500 g/ha turned out to be 70% in test [1]; 70% in test [2]; 80% in the test with Eleusine indica (ELEIN); 30% in test [3]; 40% in the test on Setaria faberi (SETFA); 20% with Lolium perenne (LOLPE). Further, the values for the pest or weed control at 500 g/ha in test [4] and in test [5] were 70% and 80%, respectively.

With `O=P([O-])(O)C[n+]1ccc(-c2ncns2)cc1` [Compound A32, hydroxy-[[4-(1,2,4-thiadiazol-5-yl)pyridin-1-ium-1-yl]methyl]phosphinate], the pest or weed control at 500 g/ha in test [1] (setting [6]) was determined as 60%; in test [2] (setting [6]), 20%; with Eleusine indica (ELEIN) (setting [6]) it was 40%; in test [3] (setting [6]), 0%; in the test on Setaria faberi (SETFA) (setting [6]), 20%; in the test with Lolium perenne (LOLPE) (setting [6]) it was 10%. Moreover, the pest or weed control at 500 g/ha worked out at 70% in test [4] (setting [6]) and 50% in test [5] (setting [6]).

Turning to `O=S(=O)([O-])CC[n+]1ccc(-c2nc(C(F)(F)F)ns2)cc1` [Compound A38], the pest or weed control at 500 g/ha in test [1] (setting [6]) turned out to be 90%; in test [2] (setting [6]), 60%; in the test with Eleusine indica (ELEIN) (setting [6]) it was 80%; in test [3] (setting [6]) it was 60%; with Setaria faberi (SETFA) (setting [6]) it was 40%; in the test on Lolium perenne (LOLPE) (setting [6]), 70%. Also, the pest or weed control at 500 g/ha in test [4] (setting [6]) was 60%; in test [5] (setting [6]) it was 50%.

`O=S(=O)([O-])CC[n+]1ccc(-c2ncco2)cc1` [Compound A39]: the pest or weed control at 500 g/ha turned out to be 40% in test [1] (setting [6]); 30% in test [2] (setting [6]); 0% in the test on Eleusine indica (ELEIN) (setting [6]); 20% in test [3] (setting [6]); 0% in the test on Setaria faberi (SETFA) (setting [6]); 0% with Lolium perenne (LOLPE) (setting [6]). Also, the pest or weed control at 500 g/ha in test [4] (setting [6]) and in test [5] (setting [6]) was 0% throughout.

Consider `O=C(O)C[n+]1ccc(-c2ccno2)cc1` [Compound A40], for which the pest or weed control at 500 g/ha in test [1] (setting [6]) was determined as 10%; in test [2] (setting [6]) it was 0%; in the test on Eleusine indica (ELEIN) (setting [6]), 0%; in test [3] (setting [6]), 20%; in the test with Setaria faberi (SETFA) (setting [6]) it was 0%; with Lolium perenne (LOLPE) (setting [6]), 0%. Also, the pest or weed control at 500 g/ha in test [4] (setting [6]) and in test [5] (setting [6]) was 0% in each case.

As for `O=S(=O)([O-])CC[n+]1ccc(-c2ccno2)cc1` [Compound A41], the pest or weed control at 500 g/ha in test [1] (setting [6]) turned out to be 10%; in test [2] (setting [6]) it was 0%; in the test with Eleusine indica (ELEIN) (setting [6]), 0%; in test [3] (setting [6]), 0%; in the test with Setaria faberi (SETFA) (setting [6]), 10%; in the test with Lolium perenne (LOLPE) (setting [6]), 0%. Besides, the pest or weed control at 500 g/ha in test [4] (setting [6]) and in test [5] (setting [6]) was 10% in each case.

Regarding `O=S(=O)([O-])C[n+]1ccc(-c2ccsn2)cc1` [Compound A42], the pest or weed control at 500 g/ha is 90% in test [1] (setting [6]); 20% in test [2] (setting [6]); 0% with Eleusine indica (ELEIN) (setting [6]); 10% in test [3] (setting [6]); 10% in the test with Setaria faberi (SETFA) (setting [6]); 0% in the test on Lolium perenne (LOLPE) (setting [6]). The pest or weed control at 500 g/ha in test [4] (setting [6]) and in test [5] (setting [6]) was 10% in each case.
